Where a SMILES comes first, the peptide text is derived from it. [ ]: non-standard residue; d: D form. The star is where a group is joined. dTrp(2-Me) = Cc1[nH]c2ccccc2c1C[C@@H](N)C(=O)O; Phe(3-Br) = N[C@@H](Cc1cccc(Br)c1)C(=O)O; dNMeW = CN[C@H](Cc1c[nH]c2ccccc12)C(=O)O; dGly(nOct) = CCCCCCCC[C@@H](N)C(=O)O; Fmoc = O=C(OCC1c2ccccc2-c2ccccc21)*; Gly(octyl) = CCCCCCCC[C@H](N)C(=O)O; dAoc(2) = CCCCCC[C@@H](N)C(=O)O; Aad = N[C@@H](CCCC(=O)O)C(=O)O; Aoc(2) = CCCCCC[C@H](N)C(=O)O; Ahp(2) = CCCCC[C@H](N)C(=O)O; Nle = CCCC[C@H](N)C(=O)O
Legend:
[1] = biological target: T1, CCK-B receptors (CHO-CCK) (Homo sapiens, UniProt P32239); assay: Calcium flux (Fluo-8) agonist test on CHO-CCK model cells; type: cell-based; conditions: CHO-CCK cells, Fluo-8 calcium flux
T1 construct: expressed in transfected cells; host or cells: CHO (CHO-CCK model cells)
T1 sequence (P32239 1-447): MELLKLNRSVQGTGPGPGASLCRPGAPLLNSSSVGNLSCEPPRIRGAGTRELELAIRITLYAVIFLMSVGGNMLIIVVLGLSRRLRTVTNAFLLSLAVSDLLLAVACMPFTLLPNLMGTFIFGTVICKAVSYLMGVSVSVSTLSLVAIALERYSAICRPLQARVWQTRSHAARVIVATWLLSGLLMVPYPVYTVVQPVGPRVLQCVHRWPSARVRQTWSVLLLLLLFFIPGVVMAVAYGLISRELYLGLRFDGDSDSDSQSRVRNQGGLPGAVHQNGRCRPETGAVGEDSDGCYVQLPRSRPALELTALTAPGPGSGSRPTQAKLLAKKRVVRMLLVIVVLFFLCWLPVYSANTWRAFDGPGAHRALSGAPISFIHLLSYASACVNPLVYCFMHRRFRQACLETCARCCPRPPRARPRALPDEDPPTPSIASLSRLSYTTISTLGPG
Outline: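 Agonist-mode Fluo-8 calcium flux read on CHO-CCK cells after dye loading 30 min at 37 °C plus 30 min at room temperature.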

[2] = biological target: T1, CCK-B receptors (CHO-CCK); assay: Calcium flux (Fluo-8) antagonist test on CHO-CCK model cells in presence of CCK8; type: cell-based
[3] = in presence of 10 nM CCK8, bound in μM

SMILES | EC50 ([1]; bound in μM) | EC50 ([2]; in presence of 10 nM CCK8) | EC50 ([1]; 100% control = 20 nM CCK8) | EC50 [2, 3]
CCCC[C@H](NC(=O)[C@H](Cc1c[nH]c2ccccc12)NC(C)=O)C(=O)N[C@@H](CCC(=O)O)C(=O)N[C@@H](Cc1c(C)[nH]c2ccccc12)C(N)=O [HT-242, Ac-D-Trp-Nle-Glu-(2-Me-Trp)-NH2] | > 10 µM | 1.31 µM | – | –
CCCC[C@H](NC(=O)[C@@H](Cc1cn(C)c2ccccc12)NC(C)=O)C(=O)N[C@@H](CCC(=O)O)C(=O)N[C@@H](Cc1cccc(Br)c1)C(N)=O [HT-243, Ac-(1-Me-Trp)-Nle-Glu-Phe(3-Br)-NH2] | – | 1.41 µM | 0.44 µM | –
CCCC[C@H](NC(=O)[C@@H](Cc1c(C)[nH]c2ccccc12)NC(C)=O)C(=O)N[C@@H](CCC(=O)O)C(=O)N[C@@H](Cc1cccc(Br)c1)C(N)=O [HT-244, Ac-(2-Me-Trp)-Nle-Glu-Phe(3-Br)-NH2] | – | 1.36 µM | 7.32 µM | –
CCCC[C@H](NC(=O)[C@@H](Cc1cn(C)c2ccccc12)NC(C)=O)C(=O)N[C@@H](CCC(=O)O)C(=O)N[C@@H](Cc1cn(C)c2ccccc12)C(N)=O [HT-245, Ac-(1-Me-Trp)-Nle-Glu-(1-Me-Trp)-NH2] | > 10 µM | 1.76 µM | – | –
CCCC[C@H](NC(=O)[C@@H](Cc1cn(C)c2ccccc12)NC(C)=O)C(=O)N[C@@H](CCC(=O)O)C(=O)N[C@@H](Cc1c(C)[nH]c2ccccc12)C(N)=O [HT-246, Ac-(1-Me-Trp)-Nle-Glu-(2-Me-Trp)-NH2] | > 10 µM | 2.13 µM | – | –
CCCC[C@H](NC(=O)[C@@H](Cc1c(C)[nH]c2ccccc12)NC(C)=O)C(=O)N[C@@H](CCC(=O)O)C(=O)N[C@@H](Cc1cn(C)c2ccccc12)C(N)=O [HT-247, Ac-(2-Me-Trp)-Nle-Glu-(1-Me-Trp)-NH2] | – | 0.62 µM | 1.9 µM | –
CCCC[C@H](NC(=O)[C@@H](Cc1c(C)[nH]c2ccccc12)NC(C)=O)C(=O)N[C@@H](CCC(=O)O)C(=O)N[C@@H](Cc1c(C)[nH]c2ccccc12)C(N)=O [HT-248, Ac-(2-Me-Trp)-Nle-Glu-(2-Me-Trp)-NH2] | – | 0.47 µM | 0.0331 µM | –
CCCC[C@H](NC(=O)[C@@H](Cc1c[nH]c2ccccc12)N(C)C(=O)OCC1c2ccccc2-c2ccccc21)C(=O)N[C@@H](CC(=O)O)C(=O)N[C@@H](Cc1cccc(Br)c1)C(N)=O [HT-249, Fmoc-(N-Me-D-Trp)-Nle-Asp-Phe(3-Br)-NH2] (Fmoc-[dNMeW][Nle]D[Phe(3-Br)]-NH2) | – | 4.55 µM | 0.00226 µM | –
CCCC[C@H](NC(=O)[C@H](Cc1c[nH]c2ccccc12)N(C)C(=O)CNC(=O)OCC1c2ccccc2-c2ccccc21)C(=O)N[C@@H](CC(=O)O)C(=O)N[C@@H](Cc1cccc(Br)c1)C(N)=O [HT-250, Fmoc-Gly-(N-Me-D-Trp)-Nle-Asp-Phe(3-Br)-NH2] | – | 2.85 µM | 0.386 µM | –
CCCC[C@H](NC(=O)[C@@H](Cc1c[nH]c2ccccc12)N(C)C(=O)CNC(=O)OCC1c2ccccc2-c2ccccc21)C(=O)N[C@@H](CC(=O)O)C(=O)N[C@@H](Cc1cccc(Br)c1)C(N)=O [HT-251, Fmoc-Gly-(N-Me-Trp)-Nle-Asp Phe(3-Br)-NH2] | – | 1.61 µM | 0.00592 µM | –
CCCC[C@H](NC(=O)[C@@H](Cc1c[nH]c2ccccc12)N(C)C(=O)CN(C)C(=O)OCC1c2ccccc2-c2ccccc21)C(=O)N[C@@H](CC(=O)O)C(=O)N[C@@H](Cc1cccc(Br)c1)C(N)=O [HT-252, Fmoc-(N-Me-Gly)-(N-Me-Trp)-Nle-Asp-Phe(3-Br)-NH2] | – | 1.03 µM | 0.255 µM | –
CCCC[C@H](NC(=O)[C@@H](Cc1c[nH]c2ccccc12)N(C)C(=O)OCC1c2ccccc2-c2ccccc21)C(=O)N[C@@H](CC(=O)OC)C(=O)N[C@@H](Cc1cccc(Br)c1)C(N)=O [HT-253, Fmoc-(N-Me-Trp)-Nle-Asp(O-Me)-Phe(3-Br)-NH2] (Fmoc-[dNMeW][Nle]D(OMe)[Phe(3-Br)]-NH2) | – | 1.92 µM | 0.744 µM | –
CCCCC[C@H](NC(=O)[C@@H](Cc1c[nH]c2ccccc12)N(C)C(=O)OCC1c2ccccc2-c2ccccc21)C(=O)N[C@@H](CC(=O)OC)C(=O)N[C@@H](Cc1cccc(Br)c1)C(N)=O [HT-254, Fmoc-(N-Me-Trp)-Pa-Asp(O-Me)-Phe(3-Br)-NH2] (Fmoc-[dNMeW][Ahp(2)]D(OMe)[Phe(3-Br)]-NH2) | – | 1.04 µM | 0.0226 µM | –
CSCC[C@H](NC(=O)[C@@H](Cc1cc2ccccc2[nH]1)NC(=O)[C@@H](N)CCC(=O)O)C(=O)N[C@@H](CC(=O)O)C(=O)N[C@@H](Cc1cccc(Br)c1)C(N)=O [HT-255, Glu-D-Trp-Met-Asp-Phe(3-Br)-NH2] | – | 0.0403 µM | 0.000569 µM | –
CSCC[C@H](NC(=O)[C@@H](Cc1cc2ccccc2[nH]1)NC(=O)[C@@]1(O)C[C@@H](O)[C@H](NC(C)=O)C([C@@H](O)[C@@H](O)CO)O1)C(=O)N[C@@H](CC(=O)O)C(=O)N[C@@H](Cc1cccc(Br)c1)C(N)=O (stereo partly drawn) [HT-256, Sia-D-Trp-Met-Asp-Phe(3-Br)-NH2] | – | 0.0419 µM | 0.000672 µM | –
CCCCC[C@H](NC(=O)[C@@H](Cc1c[nH]c2ccccc12)NC(C)=O)C(=O)N[C@@H](CC(=O)O)C(=O)N[C@@H](Cc1cccc(Br)c1)C(N)=O [HT-257, Ac-D-Trp-Pa-Asp-Phe(3-Br)-NH2] (Ac-[dW][Ahp(2)]D[Phe(3-Br)]-NH2) | – | 0.132 µM | 0.00334 µM | –
CCCCC[C@H](NC(=O)[C@@H](Cc1c[nH]c2ccccc12)N(C)C(=O)OCC1c2ccccc2-c2ccccc21)C(=O)N[C@@H](CC(=O)O)C(=O)N[C@@H](Cc1cccc(Br)c1)C(N)=O [HT-258, Fmoc-(N-Me-Trp)-Pa-Asp-Phe(3-Br)-NH2] (Fmoc-[dNMeW][Ahp(2)]D[Phe(3-Br)]-NH2) | – | 1.04 µM | 0.0226 µM | –
CCCCCC[C@H](NC(=O)[C@H](Cc1c[nH]c2ccccc12)NC(C)=O)C(=O)N[C@@H](CC(=O)O)C(=O)N[C@@H](Cc1cccc(Br)c1)C(N)=O [HT-259, Ac-D-Trp-Oa-Asp-Phe(3-Br)-NH2] (Ac-W[Aoc(2)]D[Phe(3-Br)]-NH2) | – | 0.0592 µM | 0.00229 µM | –
CCCCCCC[C@H](NC(=O)[C@H](Cc1c[nH]c2ccccc12)NC(C)=O)C(=O)N[C@@H](CC(=O)O)C(=O)N[C@@H](Cc1cccc(Br)c1)C(N)=O [HT-260, Ac-D-Trp-Na-Asp-Phe(3-Br)-NH2] | – | 2.74 µM | 0.16 µM | –
CCCCCCCC[C@H](NC(=O)[C@H](Cc1c[nH]c2ccccc12)NC(C)=O)C(=O)N[C@@H](CC(=O)O)C(=O)N[C@@H](Cc1cccc(Br)c1)C(N)=O [HT-261, Ac-D-Trp-Da-Asp-Phe(3-Br)-NH2] (Ac-W[Gly(octyl)]D[Phe(3-Br)]-NH2) | – | 3.82 µM | 0.362 µM | –
CCCC[C@H](NC(=O)[C@@H](Cc1c(C)[nH]c2ccccc12)NC(C)=O)C(=O)N[C@@H](CCCC(=O)O)C(=O)N[C@@H](Cc1cccc(Br)c1)C(N)=O [HT-262, Ac-(2-Me-Trp)-Nle-Aa-Phe(3 Br)-NH2] (Ac-[dTrp(2-Me)][Nle][Aad][Phe(3-Br)]-NH2) | – | – | 1.18 µM | > 10 µM
CCCCCC[C@@H](NC(C)=O)C(=O)N[C@@H](CCCC)C(=O)N[C@@H](CCC(=O)O)C(=O)N[C@@H](Cc1cccc(Br)c1)C(N)=O [HT-263, Ac-Oa-Nle-Glu-Phe(3-Br)-NH2] (Ac-[dAoc(2)][Nle]E[Phe(3-Br)]-NH2) | – | – | 64.5 µM | > 10 µM
CCCCCCC[C@@H](NC(C)=O)C(=O)N[C@@H](CCCC)C(=O)N[C@@H](CCC(=O)O)C(=O)N[C@@H](Cc1cccc(Br)c1)C(N)=O [HT-264, Ac-Na-Nle-Glu-Phe(3-Br)-NH2] | – | – | 11 µM | > 10 µM
CCCCCCCC[C@@H](NC(C)=O)C(=O)N[C@@H](CCCC)C(=O)N[C@@H](CCC(=O)O)C(=O)N[C@@H](Cc1cccc(Br)c1)C(N)=O [HT-265, Ac-Da-Nle-Glu-Phe(3-Br)-NH2] (Ac-[dGly(nOct)][Nle]E[Phe(3-Br)]-NH2) | – | – | 13 µM | > 10 µM
CCCCCCCCCCCCCC[C@@H](NC(C)=O)C(=O)N[C@@H](CCCC)C(=O)N[C@@H](CCCCCC)C(=O)N[C@@H](Cc1cccc(Br)c1)C(N)=O [HT-266, Ac-Ha-Nle-Oa-Phe(3-Br)-NH2] | – | 1.29 µM | 0.0402 µM | –
